Converted amounts (≈) assume the structure as drawn.

Series [1] is described as follows: Solubility and metastable zone width of D-mannitol in water and water-ethanol mixtures (Crystal16). The format is physicochemical. The conditions noted are these: with an increase in the amount of ethanol (85-15, 75-25, 50-50% wt/wt water-ethanol). The source says: According to the results of D-mannitol in water and water-ethanol mixtures, the solubility decreases with an increase in the amount of ethanol in water-ethanol mixtures. In order to know the required amount of functionalized nanoparticles and the operating region for crystallization, the MSZW of D-mannitol is important. For the samples of D-mannitol in the mixtures of 85-15 and 75-25% wt/wt of water-ethanol, the cloud point lies above the saturation temperature of D-mannitol in pure water. This means that, for the mixtures of 85-15 and 75-25% water-ethanol, and the solutes with a concentration of 193 mg/ml at 20° C., spontaneous nucleation will not occur because they will remain in solution. However, these experiments helped to determine the optimum operating supersaturation levels as well as the amount of antisolvent required to crystallize compounds at a given concentration. […]
The solubility and metastable zone width (MSZW) of D-mannitol was measured in pure DI water and DI water-ethanol mixtures at different concentrations by adding a known amount of D-mannitol and 1 mL of solvent or solvent mixtures respectively to a 1.5 mL glass vial. […] The temperature at which the suspension turned into a clear solution was recorded and assumed to be the saturation temperature. […] The temperatures at which the crystals are detected are assumed to be a cloud point. […]

Series [2] is described as follows: NaCl concentration change in water after crystallization with functionalized gold nanoparticles (digital density meter). The format is physicochemical. The conditions noted are these: 1.8 nm gold nanoparticles with ethanol group, seeded, 16 hour stirring. From the text: The antisolvent crystallization of NaCl is the best example of the influence of agglomeration on the final product purity. Though the crystals are crystallized from a mother liquor containing as much as 50% weight antisolvent (on a solvent basis), the uptake of the antisolvent is as low as 30 ppm. In the present study, functionalized nanoparticles were used to crystallize NaCl from a water solution. NaCl is highly soluble in water and slightly soluble in ethanol. In the case of NaCl crystallization, water was used as a solvent and ethanol was used as an antisolvent. NaCl was crystallized in water using 1.8 nm functionalized nanoparticles with an ethanol group at the open terminal. […] After 4 hours the sample was seeded with NaCl crystals and the sample was crystallized only after 16 hour of stirring. The initial and final concentration of NaCl was measured using the Digital Density Meter DMA4500. This instrument is used for accurate measurements of solvent density necessary for the concentration measurements. […] The change in concentration after crystallization measured using the digital density meter was 27 mg.

Series [3] in a line: Solubility enhancement in water with glycolic acid functionalized iron oxide nanoparticles (HPLC). The conditions noted are these: 2 ml suspension 20 g/L in water + 200 mg glycolic acid IONPs; part converted to 4-aminophenol.
Experimental: The clear solution was analyzed using HPLC in order to determine the final concentration.
Series [4] can be described thus: physchem. Conditions: water.
Experimental: The method development involved the study of methanol and acetonitrile as organic modifiers, pH and flow-rate using a Chromolith RP-18e (150 mm×4.6 mm I.D.) column. After comparing the performance the optimum analysis of these compounds was achieved using 50 mM acetate buffer (pH 5.0)-acetonitrile (80:20, v/v) as mobile phase, 1 mL min-1 flow-rate and UV detection at maximum absorbance wavelength of 250 nm.
Series [5] is described as follows: physchem. The conditions noted are these: water, thermodynamic from solid. The protocol: A saturated solution of ibuprofen in water was prepared at room temperature. […] An additional 20 mg of ibuprofen was added to 5 mL of the saturated solution. Then, 200 mg of iron oxide nanoparticles that had been functionalized with glycolic acid were added and mixed. Clear samples of solution were then taken from the slurry and analyzed with HPLC.

On to `OC[C@@H](O)[C@@H](O)[C@H](O)[C@H](O)CO` [D-mannitol], for which the “solubility of D-mannitol in water-ethanol mixtures” value in series [1] is given as “decreases”.

On to `[Cl-].[Na+]` [NaCl, Sodium chloride], for which the “change in concentration after crystallization” value in series [2] amounted to 27 mg.

As for `O=[N+]([O-])c1ccc(O)cc1` [4-nitrophenol], in series [3], the “concentration in clear solution after IONP addition” value is 16500 µg/mL. Also, the thermodynamic solubility (commonly the concentration in solution at equilibrium with solid) at 24 h in the series “physchem [4]” (20 °C, thermodynamic from solid) stood at 13 mg/mL (≈ 93.5 mM). Besides, the solubility (usually the concentration that dissolves in the medium under given conditions) at 24 h in “physchem [4]” (25 °C) worked out at 13 mg/mL (≈ 93.5 mM).

In “physchem [5]”, `CC(C)Cc1ccc(C(C)C(=O)O)cc1` (stereo not drawn) [ibuprofen] returned a solubility of 0.009 mg/mL (≈ 0.0436 mM).

Source of the values: US10828578B2, “Reversible control of solution solubility using functionalized nanoparticles” (Massachusetts Institute of Technology, priority 2016, dated 2020).
